We go through 32 molecules from patent US20040102431A1, “Substituted amino-aza-cycloalkanes useful against malaria” (priority 2000, published 2004).

The target in the first assay is plasmepsin II (Plasmodium falciparum, UniProt P46925). Put plainly: biochemical.
Sequence of plasmepsin II (P46925 125-453): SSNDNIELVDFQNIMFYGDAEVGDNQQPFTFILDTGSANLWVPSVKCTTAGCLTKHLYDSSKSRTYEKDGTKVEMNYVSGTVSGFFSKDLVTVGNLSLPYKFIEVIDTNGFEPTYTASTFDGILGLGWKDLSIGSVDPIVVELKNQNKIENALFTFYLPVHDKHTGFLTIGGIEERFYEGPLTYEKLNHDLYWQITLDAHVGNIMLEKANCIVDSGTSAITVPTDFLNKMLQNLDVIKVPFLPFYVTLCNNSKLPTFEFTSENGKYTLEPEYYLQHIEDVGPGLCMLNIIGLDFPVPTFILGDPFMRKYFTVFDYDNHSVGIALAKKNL
Conditions: not given
On to `CCCCCc1ccc(C(=O)N(CCCc2ccccc2)C2CCN(Cc3ccccc3)CC2)cc1` [Example 2], for which the IC50 turned out to be 1500 nM.

The assay is the same for the next values; noted with them: Additional Examples table; FRET, pH 5, 37° C., 40 min, substrate 1 μM; read-out: IC50 (nM) on plasmepsin II.
As to `CCCCCc1ccc(C(=O)N(Cc2ccc(C(F)(F)F)c(F)c2)C2CCN(Cc3ccccc3)CC2)cc1` [Example 77, N-(1-Benzylpiperidin-4-yl)-N-(3-fluoro-4-trifluoromethylbenzyl)-4-pentylbenzamide], the half-inhibitory concentration (IC50) was 153 nM.
`CCCCCc1ccc(C(=O)N(Cc2ccc(-c3ccc(OC)c(OC)c3)cc2)C2CCN(Cc3ccccc3)CC2)cc1` [Example 48, N-(1-Benzylpiperidin-4-yl)-N-(3′,4′-dimethoxybiphenyl-4-ylmethyl)-4-pentylbenzamide]: the 50% inhibitory concentration (IC50) came out at 48 nM.
`CCCCCc1ccc(C(=O)N(Cc2ccc(-c3ccc(N(C)C)cc3)cc2)C2CCN(Cc3ccccc3)CC2)cc1` [Example 106, N-(1-Benzylpiperidin-4-yl)-N-(4′-dimethylaminobiphenyl-4-ylmethyl)-4-pentylbenzamide]: the IC50 is 461 nM.
Take `CCCCCc1ccc(C(=O)N(Cc2ccc(OCc3ccccc3)cc2)[C@@H]2CCN(Cc3ccccc3)C2)cc1` [Example 114, N-(4-Benzyloxybenzyl)-N-((3R)-1-benzylpyrrolidin-3-yl)-4-pentyl-benzamide]: the 50% inhibitory concentration (IC50) is 817 nM.
In the case of `CCCCC[C@H]1CC[C@H](C(=O)N(Cc2ccc(-c3ccccc3)cc2)C2CCN(Cc3ccccc3)CC2)CC1` [Example 100, trans-4-Pentylcyclohexane carboxylic acid(1-benzylpiperidin-4-yl)-biphenyl-4-ylmethyl amide], the IC50 stood at 374 nM.
Same read-out and setting: in the case of `CCCCCc1ccc(C(=O)N(Cc2ccc(-c3cccnc3)cc2)C2CCN(Cc3ccoc3)CC2)cc1` [Example 54, N-(1-Furan-3-ylmethylpiperidin-4-yl)-4-pentyl-N-(4-pyridin-3-yl-benzyl)benzamide] it was 64 nM.
Still for that read-out and setting: in the case of `CCCCCc1ccc(C(=O)N(Cc2ccc(OCc3ccc(F)cc3)cc2)C2CCN(Cc3ccccc3)CC2)cc1` [Example 58, N-(1-Benzyl-piperidin-4-yl)-N-[4-(4-fluoro-benzyloxy)-benzyl]-4-pentyl-benzamide] it was 79 nM.
With `CCCCCc1ccc(C(=O)N(Cc2ccc(-c3ccc4c(c3)OCO4)cc2)C2CCN(Cc3ccccc3)CC2)cc1` [Example 52, N-(4-Benzo[1,3]dioxol-5-yl-benzyl)-N-(1-benzylpiperidin-4-yl)-4-pentylbenzamide], the IC50 is 58 nM.
Same read-out and setting: then `CCCCCc1ccc(C(=O)N(Cc2ccc(-c3ccc4c(c3)OCO4)cc2)C2CCN(Cc3ccncc3)CC2)cc1` [Example 50, N-(4-Benzo[1,3]dioxol-5-yl-benzyl)-4-pentyl-N-(1-pyridin-4-ylmethylpiperidin-4-yl)benzamide], with 54 nM; and `CCCCCc1ccc(C(=O)N(Cc2ccc(-c3ccccc3F)cc2)C2CCN(Cc3ccncc3)CC2)cc1` [Example 63, N-(2′-Fluorobiphenyl-4-ylmethyl)-4-pentyl-N-(1-pyridin-4-ylmethyl-piperidin-4-yl)benzamide], with 95 nM.
In the case of `CCCCCc1ccc(C(=O)N(Cc2ccc(-c3ccccc3F)cc2)C2CCN(Cc3ccccc3)CC2)cc1` [Example 53, N-(1-Benzylpiperidin-4-yl)-N-(2′-fluorobiphenyl-4-ylmethyl)-4-pentylbenzamide], the IC50 came to 61 nM.
Take `CCCCCc1ccc(C(=O)N(Cc2ccc(O)cc2)C2CCN(Cc3ccccc3)CC2)cc1` [Example 116, N-(1-Benzylpiperidin-4-yl)-N-(4-hydroxybenzyl)-4-pentyl-benzamide]: the IC50 is 882 nM.
For the molecule `CCCCCc1ccc(CN(Cc2ccc(-c3ccc(C#N)cc3)cc2)C2CCN(Cc3ccccc3)CC2)cc1` [Example 95, 4′-{[(1-Benzylpiperidin-4-yl)-(4-pentylbenzyl)amino]methyl}-biphenyl-4-carbonitrile], the IC50 was 294 nM.
As to `CCCCCc1ccc(C(=O)N(Cc2ccc(OC(C)C)cc2)C2CCN(Cc3ccccc3)CC2)cc1` [Example 83, N-(1-Benzylpiperidin-4-yl)-N-(4-isopropoxybenzyl)-4-pentylbenzamide], the concentration for half-maximal inhibition (IC50) worked out at 204 nM.
In the case of `CCCCCc1ccc(C(=O)N(Cc2ccc(OCc3ccccc3)cc2)C2CCN(CCc3ccccc3)CC2)cc1` [Example 112, N-(4-Benzyloxybenzyl)-4-pentyl-N-(1-phenethylpiperidin-4-yl)benzamide], the IC50 was 761 nM.
As for `CCCCCc1ccc(C(=O)N(C2CCN(Cc3ccccc3)CC2)[C@H](CO)Cc2ccc(OCc3ccccc3)cc2)cc1` [Example 111, N-[(1S)-2-(4-Benzyloxyphenyl)-1-hydroxymethylethyl]-N-(1-benzyl-piperidin-4-yl)-4-pentylbenzamide], the IC50 amounted to 749 nM.
On the same count and under the same terms, in the case of `CCCCCc1ccc(C(=O)N(Cc2ccc(OCc3ccccc3)cc2O)C2CCN(Cc3ccccc3)CC2)cc1` [Example 92, N-(4-Benzyloxy-2-hydroxy-benzyl)-N-(1-benzylpiperidin-4-yl)-4-pentylbenzamide] it was 281 nM.
Consider `CCCCCc1ccc(C(=O)N(Cc2ccc(-c3cccnc3)cc2)C2CCN(CC3CCCCC3)CC2)cc1` [Example 47, N-(1-Cyclohexylmethyl-piperidin-4-yl)-4-pentyl-N-(4-pyridin-3-yl-benzyl)benzamide], for which the IC50 was determined as 46 nM.
Consider `CCCCCc1ccc(CN(Cc2ccc(-c3ccc4c(c3)OCO4)cc2)C2CCN(Cc3ccccc3)CC2)cc1` [Example 91, (4-Benzo[1,3]dioxol-5-yl-benzyl)-(1-benzylpiperidin-4-yl)-(4-pentyl-benzyl)amine], for which the half-maximal inhibitory concentration (IC50) came to 275 nM.
As to `CCCCCc1ccc(C(=O)N(Cc2ccc(-c3ccc(OCCO)cc3)cc2)C2CCN(Cc3ccncc3)CC2)cc1` [Example 44, N-[4′-(2-Hydroxyethoxy)-biphenyl-4-ylmethyl]-4-pentyl-N-(1-pyridin-4-ylmethylpiperidin-4-yl)benzamide], the half-inhibitory concentration (IC50) came to 39 nM.

Staying with this assay, now noted: […]; FRET, pH 5, 37° C., 40 min, substrate 1 μM; read-out: IC50 (nM) on plasmepsin II.
`CCCCCc1ccc(CN(Cc2ccc(C(F)(F)F)cc2)C2CCN(Cc3ccccc3)CC2)cc1` [Example 30]: the IC50 was 695 nM.
Same read-out and setting: then `CCCCCc1ccc(C(=O)N(Cc2ccc(OCc3ccccc3)cc2)C2CCN(Cc3ccccc3)CC2)cc1` [Example 1], with 70 nM; and `CCCCCc1ccc(C(=O)N(Cc2ccc(Oc3ccccc3)cc2)C2CCN(Cc3ccccc3)CC2)cc1` [Example 7], with 462 nM; and `CCCCCc1ccc(C(=O)N(Cc2ccc(C(F)(F)F)cc2)C2CCN(Cc3ccccc3)CC2)cc1` [Example 18], with 148 nM.
For the molecule `CCCCCc1ccc(C(=O)N(Cc2ccc(-c3ccccc3)cc2)C2CCN(Cc3ccccc3)CC2)cc1` [Example 14], the IC50 came to 84 nM.
Turning to `CCCCCc1ccc(C(=O)N(Cc2ccc(-c3ccc(C#N)cc3)cc2)C2CCN(Cc3ccoc3)CC2)cc1` [Example 32], the half-maximal inhibitory concentration (IC50) is 18 nM.
With `CCCCCc1ccc(C(=O)N(Cc2ccc(OCc3ccccc3)c(OCc3ccccc3)c2)C2CCN(Cc3ccccc3)CC2)cc1` [Example 10], the IC50 was found to be 1200 nM.
Turning to `CCCCCc1ccc(CN(C(=O)c2ccc(CCCCC)cc2)C2CCN(Cc3ccccc3)CC2)cc1` [Example 26], the half-inhibitory concentration (IC50) worked out at 497 nM.
Take `CCCCCc1ccc(CN(Cc2ccc(-c3ccccc3)cc2)C2CCN(Cc3ccccc3)CC2)cc1` [Example 31]: the IC50 came out at 210 nM.
Same read-out and setting: in the case of `CCCCCc1ccc(C(=O)N(Cc2ccc(CCCC)cc2)C2CCN(Cc3ccccc3)CC2)cc1` [Example 24] it was 427 nM; in that of `CCCCCc1ccc(C(=O)N(Cc2ccc(OCc3ccccc3)c(OC)c2)C2CCN(Cc3ccccc3)CC2)cc1` [Example 22], 793 nM.

The term IC50 denotes the concentration needed to halve the response being measured.
